Laboratory results taken from patent US8524909B2, “Tetrahydro-pyran derivatives” (Hoffmann-La Roche Inc., priority 2010, dated 2013).
pIC50: −log10 of the molar value.

Biological target: mGlyT-1b (Mus musculus (Mouse), UniProt P28571)
Assay: Glycine Uptake Inhibition Assay (mGlyT-1b)
Format: cell-based
Settings: [3H]-glycine uptake in Flp-in-CHO cells stably transfected with mGlyT1b cDNA; 20 min preincubation at 22° C.
Description: DMEM complete medium: Nutrient mixture F-12 (Gibco Life-technologies), fetal bovine serum (FBS) 5%, (Gibco life technologies), Penicillin/Streptomycin 1% (Gibco life technologies), Hygromycin 0.6 mg/ml (Gibco life technologies), Glutamine 1 mM Gibco life technologies)
Uptake buffer (UB): 150 mM NaCl, 10 mM Hepes-Tris, pH 7.4, 1 mM CaCl2, 2.5 mM KCl, 2.5 mM MgSO4, 10 mM (+) D-glucose.
Flp-in™-CHO (Invitrogen Cat no R758-07) cells stably transfected with mGlyT1b cDNA.
Glycine Uptake Inhibition Assay (mGlyT-1b)
On day 1 mammalian cells, (Flp-in™-CHO), transfected with mGlyT-1b cDNA, were plated at the density of 40,000 cells/well in complete F-12 medium, without hygromycin in 96-well culture plates. On day 2, the medium was aspirated and the cells were washed twice with uptake buffer (UB). The cells were then incubated for 20 min at 22° C. with either (i) no potential competitor, (ii) 10 mM non-radioactive glycine, (iii) a concentration of a potential inhibitor. A range of concentrations of the potential inhibitor was used to generate data for calculating the concentration of inhibitor resulting in 50% of the effect (e.g. IC50, the concentration of the competitor inhibiting glycine uptake of 50%). A solution was then immediately added containing [^3H]-glycine 60 nM (11-16 Ci/mmol) and 25 μM non-radioactive glycine. The plates were incubated with gentle shaking and the reaction was stopped by aspiration of the mixture and washing (three times) with ice-cold UB. The cells were lysed with scintillation liquid, shaken 3 hours and the radioactivity in the cells was counted using a scintillation counter.

Sequence of mGlyT-1b (P28571 other isoform, or with tags, fused parts or gaps isoform P28571-2): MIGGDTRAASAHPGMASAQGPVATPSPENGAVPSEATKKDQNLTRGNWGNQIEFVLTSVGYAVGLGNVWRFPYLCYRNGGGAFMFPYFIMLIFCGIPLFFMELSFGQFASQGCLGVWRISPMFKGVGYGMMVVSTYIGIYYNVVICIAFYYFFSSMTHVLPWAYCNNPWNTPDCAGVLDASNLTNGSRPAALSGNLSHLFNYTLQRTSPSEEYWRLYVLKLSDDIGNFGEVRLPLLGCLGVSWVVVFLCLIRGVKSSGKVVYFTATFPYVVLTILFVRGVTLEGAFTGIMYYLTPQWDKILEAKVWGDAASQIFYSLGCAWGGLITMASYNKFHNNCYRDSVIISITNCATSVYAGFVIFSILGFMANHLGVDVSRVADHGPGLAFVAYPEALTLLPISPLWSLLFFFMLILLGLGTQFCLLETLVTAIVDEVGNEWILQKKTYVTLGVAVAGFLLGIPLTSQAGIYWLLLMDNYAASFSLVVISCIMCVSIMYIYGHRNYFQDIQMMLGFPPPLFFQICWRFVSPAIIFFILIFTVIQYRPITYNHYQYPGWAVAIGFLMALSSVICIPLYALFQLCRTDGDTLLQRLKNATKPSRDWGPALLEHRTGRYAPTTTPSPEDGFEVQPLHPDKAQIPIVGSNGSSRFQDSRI

Row | Compound | pIC50
1 | COc1cc(C(F)(F)F)cc(SC)c1C(=O)N[C@H]1COCC[C@H]1N1CCCC1 (racemic) [Example 1, 2-Methoxy-6-methylsulfanyl-N-((3RS,4RS)-4-pyrrolidin-1-yl-tetrahydro-pyran-3-yl)-4-trifluoromethyl-benzamide] | 6.58
2 | COc1cc(C(F)(F)F)cc(SC)c1C(=O)N[C@H]1COCC[C@@H]1N1CCCC1 (racemic) [Example 2, 2-Methoxy-6-methylsulfanyl-N-((3RS,4SR)-4-pyrrolidin-1-yl-tetrahydro-pyran-3-yl)-4-trifluoromethyl-benzamide] | 7.18
3 | COc1cc(C(F)(F)F)cc(SC)c1C(=O)N[C@H]1COCC[C@H]1NC1CCC1 (racemic) [Example 3, N-((3RS,4RS)-4-Cyclobutylamino-tetrahydro-pyran-3-yl)-2-methoxy-6-methylsulfanyl-4-trifluoromethyl-benzamide] | 6.30
4 | COc1cc(C(F)(F)F)cc(SC)c1C(=O)N[C@H]1COCC[C@@H]1NC1CCC1 (racemic) [Example 4, N-((3RS,4SR)-4-Cyclobutylamino-tetrahydro-pyran-3-yl)-2-methoxy-6-methylsulfanyl-4-trifluoromethyl-benzamide] | 6.47
5 | COc1cc(C(F)(F)F)cc(SC)c1C(=O)N[C@H]1COCC[C@@H]1N1CCC(O)C1 (mixture of isomers) [Example 7, N-[(3RS,4SR)-4-(3-Hydroxy-pyrrolidin-1-yl)-tetrahydro-pyran-3-yl]-2-methoxy-6-methylsulfanyl-4-trifluoromethyl-benzamide] | 6.81
6 | O=C(N[C@@H]1COCC[C@H]1N1CCCC1)c1ccc(C(F)(F)F)cc1C1CC1 (racemic) [Example 8, 2-Cyclopropyl-N-((3SR,4RS)-4-pyrrolidin-1-yl-tetrahydro-pyran-3-yl)-4-trifluoromethyl-benzamide] | 7.44
7 | CSc1cc(C(F)(F)F)cc(C(F)(F)F)c1C(=O)N[C@@H]1COCC[C@H]1N1CCCC1 (racemic) [Example 9, 2-Methylsulfanyl-N-((3SR,4RS)-4-pyrrolidin-1-yl-tetrahydro-pyran-3-yl)-4,6-bis-trifluoromethyl-benzamide] | 7.78
8 | Cc1cc(C(F)(F)F)cc(C(F)(F)F)c1C(=O)N[C@@H]1COCC[C@H]1N1CCCC1 (racemic) [Example 10, 2-Methyl-N-((3SR,4RS)-4-pyrrolidin-1-yl-tetrahydro-pyran-3-yl)-4,6-bis-trifluoromethyl-benzamide] | 7.39
9 | COc1cc(C(F)(F)F)cc(SC)c1C(=O)N[C@@H]1COCC[C@H]1NC1CCCC1 (racemic) [Example 11, N-((3SR,4RS)-4-Cyclopentylamino-tetrahydro-pyran-3-yl)-2-methoxy-6-methylsulfanyl-4-trifluoromethyl-benzamide] | 6.90
10 | O=C(N[C@@H]1COCC[C@H]1NC1CCCC1)c1ccc(C(F)(F)F)cc1C1CC1 (racemic) [Example 12, N-((3SR,4RS)-4-Cyclopentylamino-tetrahydro-pyran-3-yl)-2-cyclopropyl-4-trifluoromethyl-benzamide] | 7.12
11 | CSc1cc(C(F)(F)F)cc(C(F)(F)F)c1C(=O)N[C@@H]1COCC[C@H]1NC1CCCC1 (racemic) [Example 13, N-((3SR,4RS)-4-Cyclopentylamino-tetrahydro-pyran-3-yl)-2-methylsulfanyl-4,6-bis-trifluoromethyl-benzamide] | 6.60
12 | O=C(N[C@@H]1COCC[C@H]1NC1CCCCC1)c1ccc(C(F)(F)F)cc1C1CC1 (racemic) [Example 14, N-((3SR,4RS)-4-Cyclohexylamino-tetrahydro-pyran-3-yl)-2-cyclopropyl-4-trifluoromethyl-benzamide] | 6.90
13 | O=C(N[C@@H]1COCC[C@H]1N1CCCC1)c1c(C2CC2)cc(C(F)(F)F)cc1C(F)(F)F (racemic) [Example 15, 2-Cyclopropyl-N-((3SR,4RS)-4-pyrrolidin-1-yl-tetrahydro-pyran-3-yl)-4,6-bis-trifluoromethyl-benzamide] | 7.88
14 | CC(C)N[C@@H]1CCOC[C@H]1NC(=O)c1ccc(C(F)(F)F)cc1C1CC1 (racemic) [Example 16, Cyclopropyl-N-((3SR,4RS)-4-isopropylamino-tetrahydro-pyran-3-yl)-4-trifluoro-methylbenzamide] | 6.53
15 | O=C(N[C@@H]1COCC[C@H]1NC1CCOCC1)c1ccc(C(F)(F)F)cc1C1CC1 (racemic) [Example 17, 2-Cyclopropyl-N-[(3SR,4RS)-4-(tetrahydro-pyran-4-ylamino)-tetrahydro-pyran-3-yl]-4-trifluoro-methylbenzamide] | 6.04
16 | O=C(N[C@@H]1COCC[C@H]1NCC1CC1)c1ccc(C(F)(F)F)cc1C1CC1 (racemic) [Example 18, Cyclopropyl-N-[(3SR,4RS)-4-(cyclopropyl-methyl-amino)-tetrahydro-pyran-3-yl]-4-trifluoro-methylbenzamide] | 6.90
17 | O=C(N[C@@H]1COCC[C@H]1N1CCCCC1)c1ccc(C(F)(F)F)cc1C1CC1 (racemic) [Example 19, 2-Cyclopropyl-N-((3SR,4RS)-4-piperidin-1-yl-tetrahydro-pyran-3-yl)-4-trifluoro-methylbenzamide] | 7.09
18 | O=C(N[C@@H]1COCC[C@H]1NC1CC1)c1ccc(C(F)(F)F)cc1C1CC1 (racemic) [Example 20, 2-Cyclopropyl-N-((3SR,4RS)-4-cyclopropylamino-tetrahydro-pyran-3-yl)-4-trifluoromethyl-benzamide] | 6.71
19 | Cc1cc(C(F)(F)F)cc(C)c1C(=O)N[C@@H]1COCC[C@H]1N1CCCC1 (racemic) [Example 21, 2,6-Dimethyl-N-((3SR,4RS)-4-pyrrolidin-1-yl-tetrahydro-pyran-3-yl)-4-trifluoro-methylbenzamide] | 7.34
20 | COc1cc(C(F)(F)F)cc(C)c1C(=O)N[C@@H]1COCC[C@H]1N1CCCC1 (racemic) [Example 22, 2-Methoxy-6-methyl-N-((3SR,4RS)-4-pyrrolidin-1-yl-tetrahydro-pyran-3-yl)-4-trifluoro-methylbenzamide] | 6.98
21 | CCc1cc(C(F)(F)F)cc(CC)c1C(=O)N[C@@H]1COCC[C@H]1N1CCCC1 (racemic) [Example 23, 2,6-Diethyl-N-((3SR,4RS)-4-pyrrolidin-1-yl-tetrahydro-pyran-3-yl)-4-trifluoro-methylbenzamide] | 7.23
22 | CCc1cc(C(F)(F)F)cc(OC)c1C(=O)N[C@@H]1COCC[C@H]1N1CCCC1 (racemic) [Example 24, 2-Ethyl-6-methoxy-N-((3SR,4RS)-4-pyrrolidin-1-yl-tetrahydro-pyran-3-yl)-4-trifluoro-methyl-benzamide] | 7.19
23 | COc1cc(C(F)(F)F)cc(SC)c1C(=O)N[C@@H]1COCC[C@H]1NC1(C)CCCCC1 (racemic) [Example 25, 2-Methoxy-N-[(3SR,4RS)-4-(1-methyl-cyclohexyl-amino)-tetrahydro-pyran-3-yl]-6-methyl-sulfanyl-4-trifluoromethyl-benzamide] | 6.56
24 | CCc1cc(C(F)(F)F)cc(C)c1C(=O)N[C@@H]1COCC[C@H]1N1CCCC1 (racemic) [Example 26, 2-Ethyl-6-methyl-N-((3SR,4RS)-4-pyrrolidin-1-yl-tetrahydro-pyran-3-yl)-4-trifluoro-methyl-benzamide] | 7.75
